Assay results from ChEMBL document CHEMBL1201862, “PubChem BioAssay data set” (2004).
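Briefly, cells in 96-well plates were exposed to five compound concentrations for 48 h, and endpoints were estimated by linear interpolation. Abbreviation: GI50, concentration required for 50% inhibition of growth.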 Activity calls are given as the source filed them. No stated cut-off is given here; in the data, active = GI50 up to about 1.1 µM and inactive = higher.

How the values were obtained:
Test in all cases: NCI-60 cell line screen, 48 h
TK-10 = tested on: TK-10
RPMI-8226 = tested on: RPMI-8226
HT-29 = tested on: HT-29
M14 = tested on: M14
MDA-MB-231 = tested on: MDA-MB-231
KM12 = tested on: KM12
PC-3 = tested on: PC-3
HCT-116 = tested on: HCT-116
LOX IMVI = tested on: LOX IMVI
T47D = tested on: T47D
SR = tested on: SR
DU-145 = tested on: DU-145
NCI-H226 = tested on: NCI-H226
M19-MEL = tested on: M19-MEL
HOP-18 = tested on: HOP-18
KM-20L2 = tested on: KM-20L2
SNB-78 = tested on: SNB-78
DMS-273 = tested on: DMS-273
XF498 = tested on: XF498
DMS-114 = tested on: DMS-114

Compound | GI50 (TK-10) | GI50 (RPMI-8226) | GI50 (HT-29) | GI50 (M14) | GI50 (MDA-MB-231) | GI50 (KM12) | GI50 (PC-3) | GI50 (HCT-116) | GI50 (LOX IMVI) | GI50 (T47D) | GI50 (SR) | GI50 (DU-145) | GI50 (NCI-H226) | GI50 (M19-MEL) | GI50 (HOP-18) | GI50 (KM-20L2) | GI50 (SNB-78) | GI50 (DMS-273) | GI50 (XF498) | GI50 (DMS-114)
CN(C)C(=O)NCCN1CCCCCc2ccccc21 | > 100 µM (inactive) | > 100 µM (inactive) | > 100 µM (inactive) | 46.3 µM (inactive) | 57.1 µM (inactive) | > 100 µM (inactive) | > 100 µM (inactive) | > 100 µM (inactive) | > 100 µM (inactive) | > 100 µM (inactive) | > 100 µM (inactive) | > 100 µM (inactive) | 49.7 µM (inactive) | – | – | – | – | – | – | –
CC(=O)Nc1ccc(C(=O)NN2C(=O)C(Cl)/C2=C/c2ccco2)cc1 (stereo not drawn) | > 100 µM (inactive) | > 100 µM (inactive) | > 100 µM (inactive) | – | – | > 100 µM (inactive) | – | > 100 µM (inactive) | – | – | > 100 µM (inactive) | – | > 100 µM (inactive) | > 100 µM (inactive) | > 100 µM (inactive) | – | – | – | – | –
O=C1C=CC(=O)c2c(Cl)ccc(O)c21 | – | 5.66 µM (inactive) | 21.6 µM (inactive) | – | – | 52.7 µM (inactive) | – | 9.79 µM (inactive) | 18.2 µM (inactive) | – | – | – | > 91.2 µM (inactive) | 16.3 µM (inactive) | 19.1 µM (inactive) | 13.8 µM (inactive) | 22 µM (inactive) | 16.2 µM (inactive) | 17.5 µM (inactive) | 16.8 µM (inactive)
Cc1cc(C(=O)NCCN(C)C)c2nc3ccccc3cc2c1 | – | 1.55 µM (inactive) | 1.13 µM (inactive) | – | – | 2.94 µM (inactive) | – | 0.904 µM (active) | 1.27 µM (inactive) | – | – | – | 1.17 µM (inactive) | 1.85 µM (inactive) | 1.74 µM (inactive) | 0.729 µM (active) | 4.45 µM (inactive) | 2.31 µM (inactive) | 1.42 µM (inactive) | 1.04 µM (active)
ClCc1ccc2ccc3ccc(CCl)nc3c2n1 | – | 1.46 µM (inactive) | 2.17 µM (inactive) | – | – | 0.9 µM (active) | – | 1.69 µM (inactive) | 1.56 µM (inactive) | – | – | – | 2.28 µM (inactive) | 1.76 µM (inactive) | 2.65 µM (inactive) | 4.1 µM (inactive) | 2.88 µM (inactive) | 2.2 µM (inactive) | 1.65 µM (inactive) | 1.87 µM (inactive)
C=CCCN1CCc2c([nH]c3ccccc23)C1C(=O)O (stereo not drawn) | > 100 µM (inactive) | – | > 100 µM (inactive) | > 100 µM (inactive) | – | > 100 µM (inactive) | – | > 100 µM (inactive) | > 100 µM (inactive) | – | > 100 µM (inactive) | – | 89.7 µM (inactive) | > 100 µM (inactive) | – | > 100 µM (inactive) | > 100 µM (inactive) | > 100 µM (inactive) | > 100 µM (inactive) | 63.4 µM (inactive)
COc1cc2c(ccc3c4cc(OC)c(OC)cc4c[n+](C)c23)cc1O [FAGARONINE] | – | > 65.3 µM (inactive) | > 73.3 µM (inactive) | – | – | > 75 µM (inactive) | – | 4.24 µM (inactive) | > 33 µM (inactive) | – | – | – | 1.47 µM (inactive) | 23.9 µM (inactive) | > 75 µM (inactive) | > 75 µM (inactive) | 26.1 µM (inactive) | 5.75 µM (inactive) | 4.54 µM (inactive) | 2.37 µM (inactive)
C=C1C(=O)OC2CC1CCC1(C)OC1CCC(C)=CCCC2(C)O (stereo not drawn) | – | 1.51 µM (inactive) | 4.06 µM (inactive) | – | – | 5.52 µM (inactive) | – | 2.72 µM (inactive) | 2.24 µM (inactive) | – | – | – | 3.61 µM (inactive) | 4.2 µM (inactive) | 1.47 µM (inactive) | 2.82 µM (inactive) | 7.74 µM (inactive) | 3.1 µM (inactive) | 3.73 µM (inactive) | 2.74 µM (inactive)
Cn1c2ccc([N+](=O)[O-])cc2c(=O)n1Cc1ccccc1F | 34 µM (inactive) | > 100 µM (inactive) | 54.7 µM (inactive) | 25.4 µM (inactive) | 34.2 µM (inactive) | 35.3 µM (inactive) | 55.7 µM (inactive) | 29.1 µM (inactive) | 31.9 µM (inactive) | 19.4 µM (inactive) | 59.8 µM (inactive) | 51.2 µM (inactive) | 29.4 µM (inactive) | – | – | – | – | – | – | –
CON(C)C(C#N)=C(C#N)C#N | > 10 µM (inactive) | > 10 µM (inactive) | > 10 µM (inactive) | > 10 µM (inactive) | > 10 µM (inactive) | > 10 µM (inactive) | > 10 µM (inactive) | > 10 µM (inactive) | > 10 µM (inactive) | > 10 µM (inactive) | > 10 µM (inactive) | > 10 µM (inactive) | 2.86 µM (inactive) | – | – | – | – | – | – | –
CC1=C2C3OC(=O)C(C)C3CCC2(C)C=C/C1=N\c1ccccc1 (stereo not drawn) | – | – | > 100 µM (inactive) | – | – | > 100 µM (inactive) | – | > 100 µM (inactive) | > 100 µM (inactive) | – | – | – | > 100 µM (inactive) | > 100 µM (inactive) | > 57.1 µM (inactive) | > 100 µM (inactive) | > 100 µM (inactive) | > 100 µM (inactive) | – | > 100 µM (inactive)
CCOC(=O)c1cc(Br)c(-c2cc(C)no2)[nH]1 | 46.5 µM (inactive) | 13.9 µM (inactive) | 41.6 µM (inactive) | 39.7 µM (inactive) | 29.2 µM (inactive) | 10.1 µM (inactive) | 28.4 µM (inactive) | 27.3 µM (inactive) | 31.3 µM (inactive) | 28.1 µM (inactive) | – | 20.5 µM (inactive) | 31 µM (inactive) | – | – | – | – | – | – | –
CC1NC(=O)C(C)C(c2ccccc2)N(N=O)C1c1ccccc1 (stereo not drawn) | – | 33.6 µM (inactive) | 29.2 µM (inactive) | – | – | 74.1 µM (inactive) | – | > 59 µM (inactive) | > 69.5 µM (inactive) | – | – | – | > 100 µM (inactive) | – | 96.8 µM (inactive) | > 100 µM (inactive) | > 100 µM (inactive) | 63 µM (inactive) | 29.9 µM (inactive) | 48.5 µM (inactive)
CN(CCO)Cc1ncccc1O | > 100 µM (inactive) | > 100 µM (inactive) | > 100 µM (inactive) | > 100 µM (inactive) | > 100 µM (inactive) | > 100 µM (inactive) | > 100 µM (inactive) | – | > 100 µM (inactive) | > 100 µM (inactive) | > 100 µM (inactive) | > 100 µM (inactive) | > 100 µM (inactive) | – | – | – | – | – | – | –
O=C1C(Cl)N(c2ccccc2[N+](=O)[O-])C1c1c[nH]c2ccccc12 (stereo not drawn) | > 100 µM (inactive) | > 100 µM (inactive) | > 100 µM (inactive) | > 100 µM (inactive) | – | > 100 µM (inactive) | – | > 100 µM (inactive) | – | – | > 100 µM (inactive) | – | – | > 100 µM (inactive) | – | > 100 µM (inactive) | – | – | > 100 µM (inactive) | > 100 µM (inactive)
Cn1cc(-c2csc(-c3cn(C)c4ccccc34)n2)c2ccccc21 | 27 µM (inactive) | 20.7 µM (inactive) | > 100 µM (inactive) | 26.7 µM (inactive) | 17.3 µM (inactive) | 43.3 µM (inactive) | 21.9 µM (inactive) | 43.5 µM (inactive) | 36.4 µM (inactive) | 2.81 µM (inactive) | – | 42.9 µM (inactive) | 32.2 µM (inactive) | – | – | – | – | – | – | –
COc1ccc(CCn2cncn2)cc1 | > 100 µM (inactive) | – | > 100 µM (inactive) | > 100 µM (inactive) | – | > 100 µM (inactive) | – | > 100 µM (inactive) | – | – | > 100 µM (inactive) | – | > 100 µM (inactive) | > 100 µM (inactive) | – | > 100 µM (inactive) | > 100 µM (inactive) | > 100 µM (inactive) | – | > 100 µM (inactive)
CC(=O)OCc1c(C)c2ccccc2n1C(C)=O | 30.5 µM (inactive) | – | 59.2 µM (inactive) | > 100 µM (inactive) | – | 40.5 µM (inactive) | – | 44.5 µM (inactive) | 45 µM (inactive) | – | 36.1 µM (inactive) | – | 87.5 µM (inactive) | 53 µM (inactive) | 27.7 µM (inactive) | 53 µM (inactive) | – | 25.1 µM (inactive) | 26.5 µM (inactive) | 22.6 µM (inactive)
